Reference: patent publication US5021438A, “1,3,4,5-tetrahydrobenz(c,d)indoles” (Bayer Aktiengesellschaft, priority 1988, dated 1991)
Structures can show the parent of a compound that is named as a salt.

System: "behavioral despair" behavior
Assay: "behavioral despair" behavior according to Porsolt et al.
Assay type: in vivo
Conditions: according to Porsolt et al. 1977
Description: Furthermore, the antidepressive action properties of the compounds were investigated. For this, the influence of the compounds on the so-called "behavioral despair" behavior was investigated according to Porsolt et al. Arch. Int. Pharmacodyn. Ther. 229, 327 (1977).

Row | SMILES | influence on "behavioral despair" behavior (antidepressive action)
1 | COc1ccc2[nH]cc3c2c1CC(NCCCCN(C)S(=O)(=O)c1ccc(F)cc1)C3 (stereo not drawn) [Example 4, 6-Methoxy-4-[4-(N-4-fluorobenzenesulfonyl-N-methyl)amidobutyl]-amino-1,3,4,5-tetrahydrobenz[c,d]indole hydrochloride] | positive action
2 | CCCNC1Cc2c[nH]c3ccc(OC)c(c23)C1 (stereo not drawn) [Example 13, 6-Methoxy-4-propylamino-1,3,4,5-tetrahydrobenz[c,d]indole] | positive action
3 | COc1ccc2[nH]cc3c2c1CC(NCCCCN1Cc2ccccc2S1(=O)=O)C3 (stereo not drawn) [Example 3, 6-Methoxy-4-[4-(N-2,3-dihydro-1,2-benzisothiazol-1,1-dioxid-yl)]-butylamino-1,3,4,5-tetrahydrobenz[c,d]indole hydrochloride] | positive action
4 | CCCCS(=O)(=O)NCCN(CCC)C1Cc2c[nH]c3ccc(OC)c(c23)C1 (stereo not drawn) [Example 7] | positive action

Molecular target: 5-HT1 receptor
Assay: Affinity for the 5-HT1 receptor (receptor binding, 3H-serotonin radioligand, calf hippocampus membranes)
Conditions: calf hippocampus membrane preparations; 3H-Serotonin as radioligand
Description: Affinity for the 5-HT1 receptor
The high affinity of the compounds according to the invention for 5-hydroxytryptamine receptors of the subtype 1 is represented by way of example in Table 1. The values indicated are data which have been determined from receptor binding studies with calf hippocampus membrane preparations. 3H-Serotonin was used for this as a radioactively labelled ligand.

Row | Ki [nM] | SMILES
5 | 8 | CCCN(CCS(=O)(=O)N(C)C)C1Cc2c[nH]c3ccc(OC)c(c23)C1 (stereo not drawn) [Example 15, 6-Methoxy-4-[N-propyl-N-(dimethylsulphamoylethyl)]-amino-1,3,4,5-tetrahydrobenz[c,d]indole]
6 | 1 | CCCN(CCNC(=O)OCC)C1Cc2c[nH]c3ccc(OC)c(c23)C1 (stereo not drawn) [Example 5, 6-Methoxy-4-[N-propyl-N-(ethyloxycarbonylaminoethyl)]amino-1,3,4,5-tetrahydrobenz[c,d]indole]
7 | 0.7 | COc1ccc2[nH]cc3c2c1CC(NCCCNS(=O)(=O)c1ccc(F)cc1)C3 (stereo not drawn) [Example 18, 6-Methoxy-4-(4-fluorophenylsulphonylamidopropyl)-amino-1,3,4,5-tetrahydrobenz[c,d]indole hydrochloride]
8 | 1 | CCCN(CCNS(=O)(=O)c1ccc(C)cc1)C1Cc2c[nH]c3ccc(OC)c(c23)C1 (stereo not drawn) [Example 8, 6-Methoxy-4-[N-propyl-N-(tosylamidoethyl)]-amino-1,3,4,5-tetrahydrobenz[c,d]indole hydrochloride]
9 | 2 | COc1ccc2[nH]cc3c2c1CC(NCCCCN1C(=O)c2ccccc2S1(=O)=O)C3 (stereo not drawn) [Example 1, 6-Methoxy-4-[4-(N-1,2-benzisothiazol-3(2H)-one-1,1-dioxide-yl)]-butylamino-1,3,4,5-tetrahydrobenz[c,d]indole hydrochloride]
10 | 2 | CCCN(CCNS(=O)(=O)c1ccc2ccccc2c1)C1Cc2c[nH]c3ccc(OC)c(c23)C1 (stereo not drawn) [Example 9, 6-Methoxy-4-[N-propyl-N-(naphthylsulphonylamidoethyl)]-amino-1,3,4,5-tetrahydrobenz[c,d]indole hydrochloride]
11 | 6 | CCCN(CCNS(C)(=O)=O)C1Cc2c[nH]c3ccc(OC)c(c23)C1 (stereo not drawn) [Example 6, 6-Methoxy-4-[N-propyl-N-(methylsulphonylamidoethyl)]-amino-1,3,4,5-tetrahydrobenz[c,d]indole]
12 | 2 | O=C1c2ccccc2S(=O)(=O)N1CCCCNC1Cc2cccc3[nH]cc(c23)C1 (stereo not drawn) [Example 2, 4-[4-(N-1,2-Benzisothiazol-3(2H)-one-1,1-dioxide-yl)]-butylamino-1,3,4,5-tetrahydrobenz[c,d]indole]
